In US20010056071A1, “Use of resveratrol for the treatment of exfoliative eczema, acne and psoriasis” (priority 2000, published 2001):

Tests used:
[1] = test system: severe disabling exfoliative eczema; experiment: Clinical study of 1% resveratrol ointment in exfoliative eczema (six-area/six-sign score); format: in vivo, patients
Procedure: Experiments were carried out on patients (n=20) of both sexes, of age above 18 years, suffering from severe disabling exfoliative eczema unresponsive to the current topical treatments.
All patients were subjected to complete blood count and measurements of renal and hepatic functions prior to treatment. Patients who had been systemically treated two months previously with corticoids, antibiotics, psoralenes and other immunosuppressants or with UV were excluded. Patients were supposed not to use any corticoid topically.
Out of 20 patients, 10 were included in the resveratrol-treated group (1% resveratrol ointment) and 10 in the control group (ointment with no resveratrol). […] Patients were divided in two groups and treated twice a day for six months either with the resveratrol-containing ointment or with the placebo ointment (control group).
The progress of the disease was monitored by using the “six-area/six-sign score” method. The severity of the six signs used for monitoring the disease (erythema, pustules, excoriations, dehydration, scaling of the skin and lichenification), was evaluated on a 0-3 score (none, mean, moderate and severe), in each of the six body areas tested (head, neck, hands, elbows, feet, legs and trunk). The severity of itching and of sleep disorders was evaluated on a 0-3 score (none, mean, moderate and severe).

acne vulgaris = experiment: Randomized, double blind study of topical resveratrol (1% cream) in acne vulgaris; format: in vivo, patients; conditions: 1% cream daily for 10 weeks
Procedure: A randomized, double blind study was carried out in order to evaluate the effectiveness of topical administration of resveratrol in the treatment of acne vulgaris. Patients (n=30) of 15 to 19 years were all suffering from II or III degree acne (according to Pillsbury's classification), with multiple inflammatory lesions (20 to 62) and a number of comedos (28 to 120) on face and forehead. Only subjects who had received no systemic treatment with antibiotics for at least 4 weeks and had used no topical medicaments for 2 weeks before treatment were selected. During treatment with resveratrol, no further topical treatment was allowed. The effectiveness of the therapy was evaluated by comparing the conditions of the lesions before and after the treatment, according to an arbitrary score of 0 to 5 (0=worsening; 1=no changes; 2=slight improvement; 3=modest improvement; 4=good improvement; 5=excellent improvement).
Treatment consisted of daily topical administrations of resveratrol (1% cream) or of the carrier only, for 10 weeks in 30 patients suffering from acne vulgaris. The evaluated parameters were: number of acne lesions and comedos, erythema, seborrhoic skin and skin scaling.

chronic psoriasis = experiment: Multi-center, double blind study of ointments in mild to moderate chronic psoriasis; format: in vivo, patients; conditions: for percentage of patients healed or showing marked improvement (treatment effective): ointment twice a day for one month, 1% resveratrol, calcipotriol 50 mg/g, or both, 12 patients per group, control 10%
Source text: A prospectic, multi-center, double bind study was effected on patients of both sexes, of age above 18 years, with a clinical diagnosis of mild to moderate chronic psoriasis, with affected areas of at least 100 cm^2, but not above 40% of the total body area. Patients with pustular psoriasis or with psoriasis guttata, those who had received either topical treatment for two weeks before the test or systemic treatment in the 8 weeks before the test, as well as pregnant and nursing women or patients receiving more than 400 IU of vitamin D daily or any other medicament potentially affecting the progress of the disease, were excluded.
Out of 48 patients, 12 were included in the resveratrol-treated group (1% resveratrol ointment), 12 in the control group (ointment with no resveratrol), 12 in a group treated with a Vitamin D derivative (calcipotriol 50 mg/g) and 12 in a group treated with the combination resveratrol/Vitamin D derivative (1% resveratrol/50 mg/g calcipotriol). […] Patients were treated twice a day for one month with the different ointments.
At the end of the treatment, the clinical response was evaluated as “healed”, “marked improvement”, “slight improvement”, “no changes”, “worsening”. Quality life evaluations were carried out before and after the treatment, by using the “psoriasis Disability Index” (PDI) and the “Sickness Impact Profile” (SIP). The PDI questionnaire included 15 questions as follows: daily activities (5 questions), work or school, if applicable, (3 questions), personal relationships, (2 questions), spare time (4 questions), treatment, (1 question). […] The purpose of said questions was to evaluate symptoms and feelings of the patients concerning their psoriasis during the first 4 weeks of treatment.

[2] = test system: neutrophils, circulating cells, cells at the lesion site; experiment: General observations during and after topical treatment with resveratrol; format: in vivo
[3] = end of six months treatment, 10 treated patients

Structure (SMILES) | mean of the values concerning the different clinical symptoms (six-area/six-sign score) ([1]; 1% resveratrol ointment twice a day, after the first two weeks of treatment, baseline 57.0 (SEM 1.6, n=10)) | body area affected by eczema ([1]; during treatment, baseline 69% on the average) [%] | number of treated patients showing improvements only concerning skin scaling [1, 3] | number of treated patients with significant improvements of all the considered parameters [1, 3] [patients] | mean score for itching (0-3) ([1]; end of the treatment, baseline 2.3) | mean score for sleep disorders (0-3) ([1]; end of the treatment, baseline 2.9) | cases in which effectiveness was due to the reduction of follicle hyperkeratosis (acne vulgaris) [%] | side effects (acne vulgaris) | treated subjects with significant reduction of erythema, number of acne lesions, comedos and scaling (acne vulgaris; control subjects 2%) [%] | reduction in the total PDI score (chronic psoriasis; after treatment, 95% CI 4.4, 8.6, P=0.001, control group 1.7) | percentage of patients healed or showing marked improvement (treatment effective) (chronic psoriasis) [%] | neutrophils activity, circulating cells, cells at the lesion site ([2]; after topical treatment) | systemic or topical effects during and after the treatment ([2]; topical use)
Oc1ccc(/C=C/c2cc(O)cc(O)c2)cc1 [resveratrol, 3,4′,5-trihydroxy-trans-stilbene] | 21.5 | 27 | two | 8 | 0.6 | 1.0 | 95 | neither systemic nor topical side effects | 96 | 6.5 | 80 | no changes of neutrophils activity | neither systemic nor topical effects
C=C1/C(=C\C=C2/CCC[C@]3(C)[C@@H]([C@H](C)/C=C/[C@@H](O)C4CC4)CC[C@@H]23)C[C@@H](O)C[C@@H]1O [Vitamin D derivatives, calcipotriol, reference compound] |  |  |  |  |  |  |  |  |  |  | 47 |  | 
